pKi: −log10 of the molar value. Where two headings read alike, the source gives them in different places.

From EP4631938A1, “NITROGEN-CONTAINING HETEROCYCLE WITH SEROTONIN RECEPTOR-BINDING ACTIVITY AND CARBOCYCLIC DERIVATIVE” (Shionogi & Co., Ltd, priority 2022, dated 2024) come the findings set out here.

Assay [1] deals with T1, human recombinant 5-HT2A receptor (Homo sapiens, UniProt P28223).
T1 construct: expressed in transfected cells; host or cells: Jump-In HEK cells (membrane preparation)
T1 sequence (P28223 whole entry): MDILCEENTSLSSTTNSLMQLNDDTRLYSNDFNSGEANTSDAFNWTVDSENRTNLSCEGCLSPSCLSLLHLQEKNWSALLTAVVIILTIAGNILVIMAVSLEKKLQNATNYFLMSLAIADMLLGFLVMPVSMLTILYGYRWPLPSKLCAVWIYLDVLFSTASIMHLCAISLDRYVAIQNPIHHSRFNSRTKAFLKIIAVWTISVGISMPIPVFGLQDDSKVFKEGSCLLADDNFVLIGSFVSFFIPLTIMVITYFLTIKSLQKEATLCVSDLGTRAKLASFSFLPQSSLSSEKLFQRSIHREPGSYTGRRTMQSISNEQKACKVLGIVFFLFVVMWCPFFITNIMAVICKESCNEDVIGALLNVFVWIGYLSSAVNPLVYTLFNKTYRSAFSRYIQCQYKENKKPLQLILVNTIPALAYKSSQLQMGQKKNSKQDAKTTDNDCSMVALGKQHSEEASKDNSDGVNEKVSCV
Kind of assay: Test Example 1-2: 5-HT2A receptor binding inhibition test ([3H]-Ketanserin; non-specific ligand Ketanserin). In short, it runs like this: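 Membranes expressing the receptor were incubated with [3H]-ketanserin and compound for 1.5 h at 25 °C, then filtered onto plates presoaked in 50 mmol/L Tris-HCl pH 7.4 and scintillation-counted. Non-specific binding was defined with 500 µmol/L unlabeled ketanserin. Ki was taken from dose-response curves, with Kd set for each membrane lot by Scatchard analysis.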

In assay [2] the target is T2, human recombinant 5-HT2C receptor (Homo sapiens, UniProt P28335).
T2 construct: expressed in transfected cells; host or cells: Jump-In HEK cells (membrane preparation)
T2 sequence (P28335 33-458): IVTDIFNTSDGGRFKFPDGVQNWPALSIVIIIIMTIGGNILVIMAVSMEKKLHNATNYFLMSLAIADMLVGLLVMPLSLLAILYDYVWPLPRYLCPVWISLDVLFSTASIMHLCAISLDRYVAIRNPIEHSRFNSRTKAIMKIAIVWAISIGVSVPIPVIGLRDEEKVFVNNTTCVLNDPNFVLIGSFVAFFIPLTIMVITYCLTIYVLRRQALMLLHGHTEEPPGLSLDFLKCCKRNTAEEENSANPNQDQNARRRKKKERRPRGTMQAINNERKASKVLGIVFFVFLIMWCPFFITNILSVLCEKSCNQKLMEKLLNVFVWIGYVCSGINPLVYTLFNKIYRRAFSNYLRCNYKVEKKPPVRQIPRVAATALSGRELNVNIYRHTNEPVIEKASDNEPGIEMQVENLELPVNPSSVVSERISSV
Kind of assay: Test Example 2-2: 5-HT2C receptor binding inhibition test ([3H]-Mesulergine; non-specific ligand Ketanserin). The conditions noted are these: non-specific binding with 500 µmol/L Ketanserin, 37°C, 2 hours. The protocol: The Kd value is calculated when the lot of the cell membrane is changed. 1 mmol/L non-specific binding calculating compound dissolved in DMSO or DMSO is previously dispensed to the microplate by 0.5 µL, and the cell membrane is diluted with an Assay buffer. The radioactive ligand solution is diluted step by step, and counts are checked with a liquid scintillator. The Assay buffer containing diluted cell membranes is dispensed by 50 µL/well into the microplate. The radioactive ligand solution is then dispensed by 50 µL/well into the microplate and the plate is sealed. The microplate is allowed to stand at 37°C for 2 hours. During this time, 50 mmol/L Tris-HCl (pH 7.4) is dispensed by 50 µL/well into the UniFilter plate and allowed to stand at 4°C for 1 hour or longer. Thereafter, filtration is performed with a Cell Harvester (PerkinElmer). The radioactive ligand solution is dispensed by 10 µL/well into empty wells of the UniFilter plate. After drying the UniFilter plate at room temperature, MicroScinti20 is dispensed by 50 µL/well into the UniFilter plate, and the plate is sealed. UniFilter plate is allowed to stand at room temperature overnight. The radioactivity of [^3H]-Mesulergine bound to the 5-HT2C receptor is measured using Microbeta2 (PerkinElmer) at a measurement time of 1 min/well. The Saturation curve is drawn from the measured value, and the Kd value is calculated from the slope of the Scatchard Plot.
A compound solution dissolved in DMSO is dispensed to a microplate by 0.5 µL, and a cell membrane and a hot ligand are each diluted with an Assay buffer. The Assay buffer containing diluted cell membrane is then dispensed by 50 µL/well into the microplate. The radioactive ligand solution is then dispensed by 50 µL/well into the microplate and the plate is sealed. The microplate is then allowed to stand at 37°C for 2 hours. During this time, 50 mmol/L Tris-HCl (pH 7.4) is dispensed by 50 µL/well into the UniFilter plate and allowed to stand at 4°C for 1 hour or longer. Thereafter, filtration is performed with a Cell Harvester (PerkinElmer). After drying the UniFilter plate at room temperature, MicroScinti20 is dispensed by 50 µL/well into the UniFilter plate, and the plate is sealed. UniFilter plate is allowed to stand at room temperature overnight. The radioactivity of [^3H]-Mesulergine bound to the 5-HT2C receptor is measured using Microbeta2 (PerkinElmer) at a measurement time of 1 min/well. Non-specific binding is calculated from the radioactivity of [^3H]-Mesulergine in the presence of 500 µmol/L Ketanserin of unlabeled ligand, and total binding is calculated from the radioactivity of [^3H]-Mesulergine in the absence of the compound of the present invention (Vehicle). Finally, the Ki value is calculated from the dose-response curve.
(The binding activity of the compound according to the present invention is calculated from the following binding inhibition rate (%).) Inhibition rate (%) = [1−(c−a)/(b−a)] × 100 [formula] • a; average cpm of non-specific binding • b; average cpm of total binding • c; cpm in the presence of the test compound
The compounds of the present invention were tested essentially as described above.

In assay [3] the target is T2, human recombinant 5-HT2C receptor. Kind of assay: Test Example 2: 5-HT2C receptor binding inhibition test ([3H]-Mesulergine; non-specific ligand Serotonin HCl). The conditions noted are these: human serotonin 5-HT2C receptor binding activity. In short, it runs like this: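 Filtration binding to membranes bearing human 5-HT2C with [3H]-mesulergine, 2 h at 37°C; non-specific binding defined with 500 µmol/L serotonin HCl, total binding with vehicle. Inhibition rate computed from cpm; Ki derived from dose-response curve, with ligand Kd from Scatchard analysis of saturation binding.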

Setting [4] is: [3H]-Ketanserin, non-specific binding with 500 µmol/L Ketanserin, room temperature (25°C), 1.5 hours, read-out: h 5-HT2A Ki.

As a reminder, the pKi is −log10 of the Ki, conventionally taken in molar units. For `Cc1noc(C)c1-c1cc(Nc2ncc(C(F)(F)F)cc2F)ccc1OCCO` [Compound I-010], the pKi in assay [1] (setting [4]) was 9.61; in assay [2] it was 8.85.
The like results for `OCCOc1ccc(Nc2ncc(C(F)(F)F)cc2F)cc1-c1ccncc1Cl` [Compound I-011] were, in that order, 9.88 and 8.34.
The matching figures for `Cc1cnccc1-c1cc(Nc2ncc(C(F)(F)F)cc2F)ccc1OCCO` [Compound I-012]: 9.57 and 8.19.
The matching figures for `Cc1ncccc1-c1cc(Nc2ncc(C(F)(F)F)cc2F)ccc1OCCO` [Compound I-013]: 9.48 and 8.14.
With `COc1ncccc1-c1cc(Nc2ncc(C(F)(F)F)cc2F)ccc1OCCO` [Compound I-014], the pKi was 9.38 in assay [1] (setting [4]) and 8.05 in assay [2].
The matching figures for `Cn1ncc(Cl)c1-c1cc(Nc2ncc(C(F)(F)F)cc2F)ccc1OCCO` [Compound I-015]: 9.71 and 9.61.
The like results for `Cn1ncc(Br)c1-c1cc(Nc2ncc(F)cc2F)ccc1OCCO` [Compound I-016] were, in that order, 9.55 and 9.16.
For `Cn1ncc(Br)c1-c1cc(Nc2ncc(Cl)cc2F)ccc1OCCO` [Compound I-017], the pKi in assay [1] (setting [4]) is 9.58; in assay [2], 9.38.
The like results for `Cn1ncc(F)c1-c1cc(Nc2ncc(C(F)(F)F)cc2F)ccc1OCCO` [Compound I-018] were, in that order, 9.63 and 8.72.
The like results for `OCCOc1ccc(Nc2ncc(C(F)(F)F)cc2F)cc1-c1c(F)cccc1Cl` [Compound I-019] were, in that order, 9.26 and 8.51.
In the case of `Cc1cccc(F)c1-c1cc(Nc2ncc(C(F)(F)F)cc2F)ccc1OCCO` [Compound I-020], the pKi is 8.95 in assay [1] and 8.27 in assay [2].
On to `Cc1cc(C)c(-c2cc(Nc3ncc(C(F)(F)F)cc3F)ccc2OCCO)c(C)c1` [Compound I-021], for which the pKi in assay [1] (setting [4]) was 9.14; in assay [2], 8.39.
The matching figures for `Cc1nn(C)c(C)c1-c1cc(Nc2ncc(C(F)(F)F)cc2F)ccc1OCCO` [Compound I-022]: 9.37 and 7.32.
For `Cn1ncc(Cl)c1-c1nc(Nc2ccc(C(F)(F)F)cn2)c(F)cc1OCCO` [Compound I-385], the values for the pKi in assay [1] (setting [4]) and in assay [3] were 9.65 and 8.29, respectively.
The like results for `Cn1ncc(Cl)c1-c1nc(Nc2ccc(OC(F)(F)F)cn2)c(F)cc1OCCO` [Compound I-386] were, in that order, 9.61 and 8.28.
The like results for `Cn1ncc(Br)c1-c1nc(Nc2ccc(C(F)(F)F)cn2)c(Cl)cc1OCCO` [Compound I-387] were, in that order, 9.50 and 8.42.
The matching figures for `Cn1ncc(Br)c1-c1nc(Nc2nc3ccc(F)cc3s2)c(F)cc1OCCO` [Compound I-388]: 9.44 and 8.12.
As for `Cc1nc(C)c(-c2cc(Nc3ncc(C(F)(F)F)cc3C)ncc2OCCO)c(C)n1` [Compound I-389], the values for the pKi in assay [1] (setting [4]) and in assay [3] were 8.92 and 8.62, respectively.
As to `Cc1nc(C)c(-c2cc(Nc3ncc(C(F)(F)F)cc3Cl)ncc2OCCO)c(C)n1` [Compound I-390], the negative-log Ki (pKi) in assay [1] (setting [4]) was 8.97; in assay [3], 8.41.
As to `CNC(=O)c1ccc(F)c(-c2cc(Nc3ncc(C(F)(F)F)cc3F)ncc2OCCO)c1` [Compound I-391], the pKi was 9.45 in assay [1] (setting [4]) and 7.72 in assay [3].
The matching figures for `Cc1nc(C)c(-c2cc(Nc3ncc(OC(F)(F)F)cc3F)ncc2O[C@H](C)CO)c(C)n1` [Compound I-392]: 8.54 and 7.91.
As to `COCc1nc(C)c(-c2nc(Nc3cc(-c4ccccc4)no3)c(F)cc2OCCO)c(C)n1` [Compound I-393], the figures for the pKi in assay [1] (setting [4]) and in assay [3] were 7.75 and 7.10, respectively.
The matching figures for `COCc1nc(C)c(-c2nc(Nc3ccc(C(F)(F)F)c(OC)n3)c(F)cc2OCCO)c(C)n1` [Compound I-394]: 8.87 and 8.67.
The matching figures for `COCc1nc(C)c(-c2nc(Nc3ccc(OC(F)(F)F)c(C)n3)c(F)cc2OCCO)c(C)n1` [Compound I-395]: 8.47 and 8.74.
Turning to `COCc1nc(C)c(-c2nc(Nc3ccc(C(F)(F)F)c(C#N)n3)c(F)cc2OCCO)c(C)n1` [Compound I-396], the pKi is 8.00 in assay [1] (setting [4]) and 7.76 in assay [3].
The matching figures for `Cn1ncc(Br)c1-c1cc(Nc2ncc(C(F)(F)F)cn2)c(Cl)cc1OCCO` [Compound I-397]: 9.38 and 8.74.
The like results for `Cn1ncc(Br)c1-c1cc(Nc2ncc(Cl)cn2)c(Cl)cc1OCCO` [Compound I-398] were, in that order, 9.24 and 8.28.
The matching figures for `Cn1ncc(Br)c1-c1cc(Nc2ncc(C(F)(F)F)cc2F)c(Cl)cc1OCCO` [Compound I-399]: 9.46 and 9.07.
As for `Cn1ncc(Br)c1-c1cc(Nc2ccc(C(F)(F)F)cn2)c(Cl)cc1OCCO` [Compound I-400], the figures for the negative-log Ki (pKi) in assay [1] (setting [4]) and in assay [3] were 9.47 and 8.86, respectively.
The like results for `Cn1ncc(Br)c1-c1cc(Nc2ccc(Cl)cn2)c(Cl)cc1OCCO` [Compound I-401] were, in that order, 9.68 and 9.07.
`Cn1ncc(Br)c1-c1cc(Nc2ccc(C(F)(F)F)nn2)c(F)cc1OCCO` [Compound I-402]: the pKi in assay [1] (setting [4]) was 9.27; in assay [3] it was 7.96.
Take `Cn1ncc(Br)c1-c1cc(Nc2ccc(C(F)F)nn2)c(F)cc1OCCO` [Compound I-403]: the pKi in assay [1] (setting [4]) was 9.25; in assay [3] it was 7.52.
The matching figures for `Cn1ncc(Br)c1-c1cc(Nc2cnc(C(F)(F)F)cn2)c(F)cc1OCCO` [Compound I-404]: 9.44 and 8.24.
The matching figures for `Cn1ncc(Br)c1-c1cc(Nc2nc3ccc(F)cc3s2)c(F)cc1OCCO` [Compound I-405]: 9.56 and 9.53.
The like results for `Cn1ncc(Br)c1-c1cc(Nc2nc3ccc(F)cc3[nH]2)c(F)cc1OCCO` [Compound I-406] were, in that order, 9.33 and 8.61.
For `Cn1ncc(Br)c1-c1cc(Nc2cc(C(F)(F)F)ccn2)c(F)cc1OCCO` [Compound I-407], the values for the negative-log Ki (pKi) in assay [1] (setting [4]) and in assay [3] were 9.65 and 8.44, respectively.
The matching figures for `Cn1ncc(Br)c1-c1cc(Nc2nc3ccc(F)cc3s2)c(Cl)cc1OCCO` [Compound I-408]: 9.42 and 8.72.
The like results for `Cn1ncc(Cl)c1-c1cc(Nc2ncc(C(F)(F)F)cc2F)c(Cl)cc1OCCO` [Compound I-409] were, in that order, 9.38 and 8.67.
The matching figures for `Cn1ncc(Cl)c1-c1cc(Nc2ncc(C(F)(F)F)cn2)c(Cl)cc1OCCO` [Compound I-410]: 9.24 and 8.40.
